Assay [1] addresses T1, STAT6 protein (Homo sapiens, UniProt P42226).
T1 sequence (P42226 1-847): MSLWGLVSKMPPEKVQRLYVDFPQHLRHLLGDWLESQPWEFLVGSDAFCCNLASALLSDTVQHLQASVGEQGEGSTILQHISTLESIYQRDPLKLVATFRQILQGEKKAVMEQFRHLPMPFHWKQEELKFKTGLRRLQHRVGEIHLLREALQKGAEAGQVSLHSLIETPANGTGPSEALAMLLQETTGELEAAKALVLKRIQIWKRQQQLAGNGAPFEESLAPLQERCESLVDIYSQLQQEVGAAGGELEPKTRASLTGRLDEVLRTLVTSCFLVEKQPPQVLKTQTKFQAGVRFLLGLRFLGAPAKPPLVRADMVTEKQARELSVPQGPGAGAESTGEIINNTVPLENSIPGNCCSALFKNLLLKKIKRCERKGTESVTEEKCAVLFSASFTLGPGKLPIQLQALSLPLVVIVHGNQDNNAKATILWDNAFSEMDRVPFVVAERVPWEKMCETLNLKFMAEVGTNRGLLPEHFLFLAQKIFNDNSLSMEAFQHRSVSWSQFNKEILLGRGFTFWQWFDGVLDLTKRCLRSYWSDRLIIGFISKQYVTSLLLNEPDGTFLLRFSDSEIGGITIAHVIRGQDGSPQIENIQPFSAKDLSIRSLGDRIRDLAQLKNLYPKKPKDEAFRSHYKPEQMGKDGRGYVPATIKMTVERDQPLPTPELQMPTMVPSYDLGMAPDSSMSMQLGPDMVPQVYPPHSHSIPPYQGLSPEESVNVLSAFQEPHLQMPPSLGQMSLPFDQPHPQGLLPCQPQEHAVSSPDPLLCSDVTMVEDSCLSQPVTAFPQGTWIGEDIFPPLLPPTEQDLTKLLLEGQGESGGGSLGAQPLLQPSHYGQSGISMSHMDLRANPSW
Kind of assay: Fluorescence polarization (FP) binding assay, STAT6. The note with it: FP competition, 5 nM fluorescein-labeled tracer, 200 nM protein, PBS pH7.4; read-out: Binding STAT6. Summed up:
(§1)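 Fluorescein-labelled tracer (5 nM) with 200 nM STAT5 and/or STAT6 protein in PBS pH 7.4, 0.01% BGG, 0.01% Tween-20, 2 mM DTT. Mixed 15 min, then equilibrated 1 h at room temperature; read by fluorescence polarization, constants from nonlinear curve fitting.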

Assay [2] concerns the target T2, STAT5A (Homo sapiens, UniProt P42229).
T2 sequence (P42229 1-794): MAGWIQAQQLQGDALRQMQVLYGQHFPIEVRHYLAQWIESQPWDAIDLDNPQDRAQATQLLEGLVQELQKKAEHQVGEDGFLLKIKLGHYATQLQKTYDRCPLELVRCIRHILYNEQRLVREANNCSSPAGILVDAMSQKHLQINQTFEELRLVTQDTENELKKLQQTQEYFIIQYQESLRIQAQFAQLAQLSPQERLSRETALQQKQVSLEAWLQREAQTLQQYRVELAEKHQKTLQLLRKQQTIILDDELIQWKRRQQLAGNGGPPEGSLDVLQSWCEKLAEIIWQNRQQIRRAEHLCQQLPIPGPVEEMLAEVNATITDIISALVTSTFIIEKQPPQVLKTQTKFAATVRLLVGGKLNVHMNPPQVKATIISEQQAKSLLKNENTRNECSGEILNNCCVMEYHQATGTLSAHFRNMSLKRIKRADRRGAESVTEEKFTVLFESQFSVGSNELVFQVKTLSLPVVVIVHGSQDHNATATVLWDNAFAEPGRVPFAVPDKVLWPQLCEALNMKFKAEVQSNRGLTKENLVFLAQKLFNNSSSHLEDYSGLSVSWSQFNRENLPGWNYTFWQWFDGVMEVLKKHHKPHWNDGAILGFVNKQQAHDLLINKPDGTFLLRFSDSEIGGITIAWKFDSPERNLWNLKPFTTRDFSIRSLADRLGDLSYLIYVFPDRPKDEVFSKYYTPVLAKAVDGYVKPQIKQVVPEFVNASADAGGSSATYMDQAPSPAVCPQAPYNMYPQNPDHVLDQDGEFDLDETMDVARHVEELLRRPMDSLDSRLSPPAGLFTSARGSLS
Nature of the assay: Fluorescence polarization (FP) binding assay, STAT5A. As to conditions: FP competition, 5 nM fluorescein-labeled tracer, 200 nM protein, PBS pH7.4. The gist of the method: as §1

Regarding `CC(C)(C)[C@H](NC(=O)c1cc2cc(C(F)(F)P(=O)(O)O)ccc2[nH]1)C(=O)N1CCC[C@H]1c1nc(-c2ccccc2)cs1` [Compound 19, ((2-(((S)-3,3-dimethyl-1-oxo-1-((S)-2-(4-phenylthiazol-2-yl)pyrrolidin-1-yl)butan-2-yl)carbamoyl)-1H-indol-5-yl)difluoromethyl)phosphonic acid], the Ki in assay [1] was 1 to 10 µM; in assay [2], more than 10 µM.

Consider `CC(C)(C)[C@H](NC(=O)/C=C/c1ccc(C(F)(F)P(=O)(O)O)cc1)C(=O)N1CCC[C@H]1c1nc(-c2ccccc2)cs1` [Compound 20, ((4-((E)-3-(((S)-3,3-dimethyl-1-oxo-1-((S)-2-(4-phenylthiazol-2-yl)pyrrolidin-1-yl)butan-2-yl)amino)-3-oxoprop-1-en-1-yl)phenyl)difluoromethyl)phosphonic acid], for which the Ki in assay [1] and in assay [2] was more than 10 µM in each case.

`CC(C)(C)[C@H](NC(=O)c1cc2cc(C(F)(F)P(=O)(O)O)ccc2[nH]1)C(=O)N1CCC[C@H]1c1ncc(-c2ccccc2)s1` [Compound 21, ((2-(((S)-3,3-dimethyl-1-oxo-1-((S)-2-(5-phenylthiazol-2-yl)pyrrolidin-1-yl)butan-2-yl)carbamoyl)-1H-indol-5-yl)difluoromethyl)phosphonic acid]: the values for the Ki in assay [1] and in assay [2] were 1 to 10 µM and more than 10 µM, respectively.

As for `CC(C)(C)[C@H](NC(=O)/C=C/c1ccc(C(F)(F)P(=O)(O)O)cc1)C(=O)N1CCC[C@H]1c1ncc(-c2ccccc2)s1` [Compound 22, ((4-((E)-3-(((S)-3,3-dimethyl-1-oxo-1-((S)-2-(5-phenylthiazol-2-yl)pyrrolidin-1-yl)butan-2-yl)amino)-3-oxoprop-1-en-1-yl)phenyl)difluoromethyl)phosphonic acid], the Ki in assay [1] and in assay [2] was more than 10 µM each time.

On to `O=C(N[C@@H](CC1CCCCC1)C(=O)N1CCC[C@H]1C(=O)N1CCc2ccccc2C1)c1cc2cc(C(F)(F)P(=O)(O)O)ccc2[nH]1` [Compound 23, ((2-(((S)-3-cyclohexyl-1-oxo-1-((S)-2-(1,2,3,4-tetrahydroisoquinoline-2-carbonyl)pyrrolidin-1-yl)propan-2-yl)carbamoyl)-1H-indol-5-yl)difluoromethyl)phosphonic acid], for which the Ki in assay [1] and in assay [2] was 1 to 10 µM in each case.

In the case of `O=C(/C=C/c1ccc(C(F)(F)P(=O)(O)O)cc1)N[C@@H](CC1CCCCC1)C(=O)N1CCC[C@H]1C(=O)N1CCc2ccccc2C1` [Compound 24, ((4-((E)-3-(((S)-3-cyclohexyl-1-oxo-1-((S)-2-(1,2,3,4-tetrahydroisoquinoline-2-carbonyl)pyrrolidin-1-yl)propan-2-yl)amino)-3-oxoprop-1-en-1-yl)phenyl)difluoromethyl)phosphonic acid], the Ki in assay [1] and in assay [2] was more than 10 µM throughout.

Turning to `CC(C)(C)[C@H](NC(=O)c1cc2cc(C(F)(F)P(=O)(O)O)ccc2[nH]1)C(=O)N1CCC[C@H]1c1ncc(Cc2ccccc2)s1` [Compound 25, ((2-(((S)-1-((S)-2-(5-benzylthiazol-2-yl)pyrrolidin-1-yl)-3,3-dimethyl-1-oxobutan-2-yl)carbamoyl)-1H-indol-5-yl)difluoromethyl)phosphonic acid], the Ki was more than 10 µM in assay [1] and 1 to 10 µM in assay [2].

Turning to `CC(C)(C)[C@H](NC(=O)/C=C/c1ccc(C(F)(F)P(=O)(O)O)cc1)C(=O)N1CCC[C@H]1c1ncc(Cc2ccccc2)s1` [Compound 26, ((4-((E)-3-(((S)-1-((S)-2-(5-benzylthiazol-2-yl)pyrrolidin-1-yl)-3,3-dimethyl-1-oxobutan-2-yl)amino)-3-oxoprop-1-en-1-yl)phenyl)difluoromethyl)phosphonic acid], the Ki in assay [1] and in assay [2] was more than 10 µM in each case.

Take `O=C(N[C@@H](Cc1ccncc1)C(=O)N1CCC[C@H]1C(=O)N1CCc2ccccc2C1)c1cc2cc(C(F)(F)P(=O)(O)O)ccc2[nH]1` [Compound 27, (difluoro(2-(((S)-1-oxo-3-(pyridin-4-yl)-1-((S)-2-(1,2,3,4-tetrahydroisoquinoline-2-carbonyl)pyrrolidin-1-yl)propan-2-yl)carbamoyl)-1H-indol-5-yl)methyl)phosphonic acid]: the Ki in assay [1] is 1 to 10 µM; in assay [2], more than 10 µM.

As to `O=C(NC(C(=O)N1CCC[C@H]1C(=O)N1CCc2ccccc2C1)C1CCNCC1)c1cc2cc(C(F)(F)P(=O)(O)O)ccc2[nH]1` (stereo partly drawn) [Compound 28, (difluoro(2-((2-oxo-1-(piperidin-4-yl)-2-((S)-2-(1,2,3,4-tetrahydroisoquinoline-2-carbonyl)pyrrolidin-1-yl)ethyl)carbamoyl)-1H-indol-5-yl)methyl)phosphonic acid], the Ki in assay [1] and in assay [2] was more than 10 µM each time.

As for `O=C(/C=C/c1ccc(C(F)(F)P(=O)(O)O)cc1)NC(C(=O)N1CCC[C@H]1C(=O)N1CCc2ccccc2C1)C1CCNCC1` (stereo partly drawn) [Compound 29, (difluoro(4-((E)-3-oxo-3-((2-oxo-1-(piperidin-4-yl)-2-((S)-2-(1,2,3,4-tetrahydroisoquinoline-2-carbonyl)pyrrolidin-1-yl)ethyl)amino)prop-1-en-1-yl)phenyl)methyl)phosphonic acid], the Ki in assay [1] and in assay [2] was more than 10 µM in each case.

Consider `CC(C)(C)[C@H](NC(=O)c1cc2cc(C(F)(F)P(=O)(O)O)ccc2[nH]1)C(=O)N1CCC[C@H]1C(=O)Nc1nc(-c2ccccc2)cs1` [Compound 30, ((2-(((S)-3,3-dimethyl-1-oxo-1-((S)-2-((4-phenylthiazol-2-yl)carbamoyl)pyrrolidin-1-yl)butan-2-yl)carbamoyl)-1H-indol-5-yl)difluoromethyl)phosphonic acid], for which the Ki in assay [1] and in assay [2] was more than 10 µM throughout.

As to `CC(C)(C)[C@H](NC(=O)c1cc2cc(C(F)(F)P(=O)(O)O)ccc2[nH]1)C(=O)N1CCC[C@H]1C(=O)Nc1ncc(-c2ccccc2)s1` [Compound 31, ((2-(((S)-3,3-dimethyl-1-oxo-1-((S)-2-((5-phenylthiazol-2-yl)carbamoyl)pyrrolidin-1-yl)butan-2-yl)carbamoyl)-1H-indol-5-yl)difluoromethyl)phosphonic acid], the Ki in assay [1] is more than 10 µM; in assay [2], 0.1 to 1 µM.

Regarding `CN(C(=O)[C@@H]1CCCN1C(=O)[C@@H](NC(=O)c1cc2cc(C(F)(F)P(=O)(O)O)ccc2[nH]1)C(C)(C)C)C(c1ccccc1)c1ccccc1` [Compound 32, ((2-(((S)-1-((S)-2-(benzhydryl(methyl)carbamoyl)pyrrolidin-1-yl)-3,3-dimethyl-1-oxobutan-2-yl)carbamoyl)-1H-indol-5-yl)difluoromethyl)phosphonic acid], the Ki in assay [1] and in assay [2] was more than 10 µM in each case.

Regarding `CC(C)(C)[C@H](NC(=O)c1cc2cc(C(F)(F)P(=O)(O)O)ccc2[nH]1)C(=O)N1CCC[C@H]1c1ncc(-c2ccccc2)[nH]1` [Compound 33, ((2-(((S)-3,3-dimethyl-1-oxo-1-((S)-2-(5-phenyl-1H-imidazol-2-yl)pyrrolidin-1-yl)butan-2-yl)carbamoyl)-1H-indol-5-yl)difluoromethyl)phosphonic acid], the Ki in assay [1] and in assay [2] was more than 10 µM in each case.

The values are drawn from patent US20230295200A1 (REGENTS OF THE UNIVERSITY OF MICHIGAN, priority 2022, published 2023).
